Among the data in US20250171452A1 (Viscient Bio, Inc., priority 2022, published 2025) are IC50 values, retold here.

pIC50: −log10 of the molar value.

Chain of IDO2 (Q6ZQW0 whole entry, species assumed): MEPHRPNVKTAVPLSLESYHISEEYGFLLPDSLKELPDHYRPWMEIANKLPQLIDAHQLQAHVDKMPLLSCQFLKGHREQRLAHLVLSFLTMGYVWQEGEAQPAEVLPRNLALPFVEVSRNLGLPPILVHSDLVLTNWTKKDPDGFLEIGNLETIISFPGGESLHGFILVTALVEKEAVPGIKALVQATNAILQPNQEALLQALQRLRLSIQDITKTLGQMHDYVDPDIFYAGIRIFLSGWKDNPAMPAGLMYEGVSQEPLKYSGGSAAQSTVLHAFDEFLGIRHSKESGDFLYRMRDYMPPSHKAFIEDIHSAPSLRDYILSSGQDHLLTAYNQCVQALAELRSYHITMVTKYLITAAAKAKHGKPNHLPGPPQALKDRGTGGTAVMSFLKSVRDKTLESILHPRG
Chain of Indoleamine 2,3-dioxygenase 1 (IDO1) (P14902 whole entry): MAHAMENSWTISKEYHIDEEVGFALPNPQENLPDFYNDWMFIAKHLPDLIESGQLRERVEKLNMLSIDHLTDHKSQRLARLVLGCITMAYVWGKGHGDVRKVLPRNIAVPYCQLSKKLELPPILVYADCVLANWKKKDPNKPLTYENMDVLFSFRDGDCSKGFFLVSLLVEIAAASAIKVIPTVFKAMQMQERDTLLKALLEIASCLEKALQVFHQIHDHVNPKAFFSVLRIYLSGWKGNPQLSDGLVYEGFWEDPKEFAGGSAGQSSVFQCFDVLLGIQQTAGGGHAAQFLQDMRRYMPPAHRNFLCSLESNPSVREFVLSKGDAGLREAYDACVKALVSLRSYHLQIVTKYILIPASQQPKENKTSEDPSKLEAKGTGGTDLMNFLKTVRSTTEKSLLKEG

The first test concerns the target IDO2 (Homo sapiens (Human), UniProt Q6ZQW0). Kind of test: Cellular IDO2 assay, doxycycline and 5-methoxy-L-tryptophan medium, colorimetric. The test is classed as cell-based. Conditions: cellular level, 72 h incubation, signal at 480 nm.
Description: IDO2 inhibition at the cellular level was evaluated in vitro using the following procedure.
Using cell culture medium, the volume of the suspension was adjusted to achieve a cell concentration of 20,000 cells/well (90 uL/well).
5-Methoxy-L-tryptophan powder was dissolved in the culture medium to a concentration of 10 mM, then filtered and sterilized with a 0.22 um filter. Doxycycline powder was dissolved in ddH2O to a concentration of 100 ug/ml, then filtered and sterilized with a 0.22 um filter. 5-aminolevulinic acid powder was dissolved in ddH2O to a concentration of 400 mM, then filtered and sterilized with a 0.22 um filter. A 2× Assay medium was then by diluting the doxycycline (from 100 ug/ml to 2 ug/ml) and 5-Methoxy-L-tryptophan (from 10 mM to 5 mM) in culture medium. The 5-aminolevulinic acid solution was also added to the solution (diluting the concentration from 400 mM to 2 mM) to get a 2× working solution.
After incubation, plates and reagents were allows to equilibrate to room temperature. […] Trichloroacetic acid powder was dissolved in ddH2O to prepare 6.1N trichloroacetic acid. […] The plates were incubated at 55° C. for 40 minutes, and then centrifuged for 10 min at 2500 rpm. […] Measurement of the signal was performed using Envision at 480 nm. Throughout the foregoing process, care was taken to prevent exposure to light.
On to `O=C1c2cc([N+](=O)[O-])ccc2-n2c1nc1cnc(O)cc1c2=O` [Compound 51, 3-Hydroxy-9-nitropyrido[3′,4′:4,5]pyrimido[1,2-a]indole-5,11-dione], for which the pIC50 (commonly −log10 of the IC50, conventionally taken in molar units) is 6.30 to 7.30.

In the case of `O=C1c2cc([N+](=O)[O-])ccc2-n2c1nc1c(Br)c(F)ccc1c2=O` [Compound 35], the pIC50 is greater than 7.30.

For the compound `O=C1c2c(F)cc(F)cc2NC2C(O)c3cc([N+](=O)[O-])ccc3N12` (stereo not drawn) [Compound 32, 1,3-Difluoro-6-hydroxy-8-nitro-5a,6-dihydroindolo[2,1-b]quinazolin-12(5H)-one], the negative-log IC50 (pIC50) is 6.30 to 7.30.

`O=C(O)c1ccc2c(c1)C(=O)c1nc3cc(Cl)cc(Cl)c3c(=O)n1-2` [Compound 22, 1,3-Dichloro-6,12-dioxoindolo[2,1-b]quinazoline-8-carboxylic Acid] showed a pIC50 of less than 6.30.

`Cc1c(F)ccc2c(=O)n3c(nc12)C(=O)c1cc([N+](=O)[O-])ccc1-3` [Compound 30, 3-Fluoro-4-methyl-8-nitroindolo[2,1-b]quinazoline-6,12-dione] had a pIC50 greater than 7.30.

For `CNC(=O)c1ccc2c(c1)C(=O)c1nc3cc(Cl)cc(Cl)c3c(=O)n1-2` [Compound 20, 1,3-Dichloro-N-methyl-6,12-dioxo-6,12-dihydroindolo[2,1-b]quinazoline-8-carboxamide], the pIC50 was 6.30 to 7.30.

The compound `CO/N=C1/c2cc(F)ccc2-n2c1nc1ccc(-n3ccnc3)cc1c2=O` [Compound 132] had a pIC50 greater than 7.30.

The compound `CS(=O)(=O)c1ccc2c(c1)Cc1nc3cc(F)ccc3c(=O)n1-2` [Compound 85] had a negative-log IC50 (pIC50) of 6.30 to 7.30.

In turn, `N=C(N)c1ccc2nc3n(c(=O)c2c1)-c1ccc(F)cc1C3=O` [Compound 148, 8-fluoro-6,12-dioxo-6,12-dihydroindolo[2,1-b]quinazoline-2-carboximidamide] gave a pIC50 greater than 7.30.

Compound `CO/N=C1/c2cc(F)ccc2-n2c1nc1ccc(-c3c[nH]cn3)cc1c2=O` [Compound 146] gave a negative logarithm of the IC50 (pIC50) greater than 7.30.

For `CO/N=C1\c2cc(F)ccc2-n2c1nc1cc(CNS(N)(=O)=O)ccc1c2=O` [Compound 99], the pIC50 is greater than 7.30.

With `CC1(CCC(=O)Nc2ccc3nc4n(c(=O)c3c2)-c2ccc(F)cc2C4=O)N=N1` [Compound 129], the pIC50 is greater than 7.30.

For the compound `N#Cc1ccc2c(c1)C(=O)c1nc3ccc(CN4CCOCC4)cc3c(=O)n1-2` [Compound 136, 2-(morpholinomethyl)-6,12-dioxo-6,12-dihydroindolo[2,1-b]quinazoline-8-carbonitrile], the pIC50 was greater than 7.30.

Take `N#Cc1ccc2c(c1)C(=O)c1nc3c(Oc4ccc(F)cc4)cccc3c(=O)n1-2` [Compound 71]: the pIC50 was greater than 7.30.

In turn, `CN(C)Cc1ccc2nc3n(c(=O)c2c1)-c1ccc(S(=O)(=O)Cc2ccccc2)cc1C3=O` [Compound 127] gave a pIC50 greater than 7.30.

Turning to `COC(=O)c1ccc2nc3n(c(=O)c2c1)-c1ccc(F)cc1C3=O` [Compound 150, methyl 8-fluoro-6,12-dioxo-6,12-dihydroindolo[2,1-b]quinazoline-2-carboxylate], the pIC50 is greater than 7.30.

`CN(C)Cc1ccc2nc3n(c(=O)c2c1Cl)-c1ccc(Br)cc1C3=O` [Compound 107] had a pIC50 greater than 7.30.

`O=C1c2cc(F)ccc2-n2c1nc1ccc(-c3c[nH]cn3)cc1c2=O` [Compound 151, 8-fluoro-2-(1H-imidazol-4-yl)indolo[2,1-b]quinazoline-6,12-dione] showed a negative logarithm of the IC50 (pIC50) greater than 7.30.

`COc1cc2c(=O)n3c(nc2cn1)C(=O)c1cc([N+](=O)[O-])ccc1-3` [Compound 58, 3-Methoxy-9-nitropyrido[3′,4′:4,5]pyrimido[1,2-a]indole-5,11-dione] had a pIC50 of 6.30 to 7.30.

In the case of `N#C/N=C(\N)NCc1ccc2nc3n(c(=O)c2c1)-c1ccc(F)cc1C3=O` [Compound 140, 2-cyano-1-((8-fluoro-6,12-dioxo-6,12-dihydroindolo[2,1-b]quinazolin-2-yl)methyl)guanidine], the pIC50 is greater than 7.30.

The compound `O=C1c2cc([N+](=O)[O-])ccc2-n2c1nc1ccc(F)c(Cl)c1c2=O` [Compound 110] showed a pIC50 greater than 7.30.

Compound `[2H]C([2H])(Nc1ccc2c(=O)n3c(nc2c1)C(=O)c1cc(C#N)ccc1-3)c1ccc(F)cc1` [Compound 70] gave a pIC50 greater than 7.30.

`CS(=O)(=O)NCc1ccc2nc3n(c(=O)c2c1)-c1ccc(F)cc1C3=O` [Compound 145, N-((8-fluoro-6,12-dioxo-6,12-dihydroindolo[2,1-b]quinazolin-2-yl)methyl)methanesulfonamide] had a negative-log IC50 (pIC50) greater than 7.30.

In turn, `O=C1c2cc(SCc3ccccc3)ccc2-n2c1nc1c(Nc3ccc(F)cc3)cccc1c2=O` [Compound 120, 8-(Benzylthio)-4-((4-fluorophenyl)amino)indolo[2,1-b]quinazoline-6,12-dione] showed a negative-log IC50 (pIC50) of less than 6.30.

For the compound `O=C1c2cc(SCc3ccccc3)ccc2-n2c1nc1cc(F)cc(F)c1c2=O` [Compound 112], the pIC50 is greater than 7.30.

Compound `O=c1c2ccccc2nc2n1-c1ccc([N+](=O)[O-])cc1C2` [Compound 62, 8-Nitroindolo[2,1-b]quinazolin-12(6H)-one] had a pIC50 of 6.30 to 7.30.

For the compound `O=C1c2cc([N+](=O)[O-])ccc2-n2c1nc1cccc(Br)c1c2=O` [Compound 55, 1-Bromo-8-nitroindolo[2,1-b]quinazoline-6,12-dione], the negative logarithm of the IC50 (pIC50) was less than 6.30.

Regarding `CON=C1c2cc(F)ccc2-n2c1nc1c(Nc3ccc(F)cc3)cccc1c2=O` (stereo in doubt) [Compound 122, (Z)-8-Fluoro-4-((4-fluorophenyl)amino)-6-(methoxyimino)indolo[2,1-b]quinazolin-12(6H)-one], the pIC50 was less than 6.30.

Compound `O=c1c2cccc(Nc3ccc(F)cc3)c2nc2n1-c1ccc(F)cc1C2=NO` (stereo in doubt) [Compound 123, (Z)-8-Fluoro-4-((4-fluorophenyl)amino)-6-(hydroxyimino)indolo[2,1-b]quinazolin-12(6H)-one] had a pIC50 of 6.30 to 7.30.

Regarding `CO/N=C1/c2cc(F)ccc2-n2c1nc1ccc(CNc3ccccn3)cc1c2=O` [Compound 134, (Z)-8-fluoro-6-(methoxyimino)-2-((pyridin-2-ylamino)methyl)indolo[2,1-b]quinazolin-12(6H)-one], the pIC50 was 6.30 to 7.30.

`N#Cc1ccc2c(c1)C(=O)c1nc3c(Br)ccc(F)c3c(=O)n1-2` [Compound 111] had a pIC50 of 6.30 to 7.30.

Take `O=C1c2cc(F)ccc2-n2c1nc1c(Nc3ccc(F)cc3)cccc1c2=O` [Compound 125]: the negative logarithm of the IC50 (pIC50) is 6.30 to 7.30.

For the compound `CO/N=C1/c2cc(C#N)ccc2-n2c1nc1ccc(CN3CCOCC3)cc1c2=O` [Compound 131, (Z)-6-(methoxyimino)-2-(morpholinomethyl)-12-oxo-6,12-dihydroindolo[2,1-b]quinazoline-8-carbonitrile], the negative-log IC50 (pIC50) was greater than 7.30.

`O=C1c2cc(Br)ccc2-n2c1nc1c(Nc3ccc(F)cc3)cccc1c2=O` [Compound 121, 8-bromo-4-((4-fluorophenyl)amino)indolo[2,1-b]quinazoline-6,12-dione] showed a pIC50 of 6.30 to 7.30.

Regarding `CO/N=C1\c2cc(F)ccc2-n2c1nc1cc(CN3CCN(C)CC3)ccc1c2=O` [Compound 74], the negative logarithm of the IC50 (pIC50) was less than 6.30.

Take `CC1(CCC(=O)Nc2ccc3c(c2)C(=O)c2nc4cc(Cl)ccc4c(=O)n2-3)N=N1` [Compound 73]: the pIC50 was 6.30 to 7.30.

In turn, `[N-]=[N+]=Nc1ccc2c(c1)C(=O)c1nc3cc(Cl)ccc3c(=O)n1-2` [Compound 66] showed a pIC50 greater than 7.30.

`Cc1ccc2nc3n(c(=O)c2c1Cl)-c1ccc(Br)cc1C3=O` [Compound 105] showed a pIC50 greater than 7.30.

For `O=C1c2cc(F)ccc2-n2c1nc1cc(-c3c[nH]cn3)ccc1c2=O` [Compound 89, 8-fluoro-3-(1H-imidazol-4-yl)indolo[2,1-b]quinazoline-6,12-dione], the pIC50 was 6.30 to 7.30.

Regarding `COc1cc(OC)nc(Nc2ccc3nc4n(c(=O)c3c2)-c2ccc(F)cc2C4=O)n1` [Compound 135, 2-((4,6-dimethoxypyrimidin-2-yl)amino)-8-fluoroindolo[2,1-b]quinazoline-6,12-dione], the pIC50 was greater than 7.30.

On to “3-bromo-8-nitroindolo[2,1-b]quinazoline-6,12-dione [Compound 65]”, for which the pIC50 was 6.30 to 7.30.

`O=C1c2cc([N+](=O)[O-])ccc2-n2c1nc1ccc(F)cc1c2=O` [Compound 54, 2-Fluoro-8-nitroindolo[2,1-b]quinazoline-6,12-dione] had a pIC50 greater than 7.30.

As for `O=C(NCc1ccc2c(=O)n3c(nc2c1)C(=O)c1cc(F)ccc1-3)OCc1ccccc1` [Compound 96, benzyl ((8-fluoro-6,12-dioxo-6,12-dihydroindolo[2,1-b]quinazolin-3-yl)methyl)carbamate], the pIC50 is greater than 7.30.

Take `CON=C1c2cc(F)ccc2-n2c1nc1cc(CNC(C)=O)ccc1c2=O` (stereo in doubt) [Compound 94, (Z)—N-((8-fluoro-6-(methoxyimino)-12-oxo-6,12-dihydroindolo[2,1-b]quinazolin-3-yl)methyl)acetamide]: the pIC50 is 6.30 to 7.30.

Compound `CON=C1c2cc(C#N)ccc2-n2c1nc1c(Nc3ccc(F)cc3)cccc1c2=O` (stereo in doubt) [Compound 118, (Z)-4-((4-Fluorophenyl)amino)-6-(methoxyimino)-12-oxo-6,12-dihydroindolo[2,1-b]quinazoline-8-carbonitrile] had a pIC50 greater than 7.30.

Compound `CS(=O)(=O)NCc1ccc2c(=O)n3c(nc2c1)C(=O)c1cc(F)ccc1-3` [Compound 95, N-((8-fluoro-6,12-dioxo-6,12-dihydroindolo[2,1-b]quinazolin-3-yl)methyl)methanesulfonamide] gave a pIC50 greater than 7.30.

For `O=C1c2cc(F)ccc2-n2c1nc1ccc(CBr)cc1c2=O` [Compound 133, 2-(bromomethyl)-8-fluoroindolo[2,1-b]quinazoline-6,12-dione], the pIC50 was greater than 7.30.

`NS(=O)(=O)c1ccc2c(c1)C(=O)c1nc3c(Cl)cccc3c(=O)n1-2` [Compound 116] had a pIC50 of 6.30 to 7.30.

Another test addresses Indoleamine 2,3-dioxygenase 1 (IDO1) (Homo sapiens (Human), UniProt P14902). The test is described as follows: Cellular IDO1 assay: kynurenine production in IFN-γ-stimulated HeLa cells, colorimetric.
Settings: not given
In the case of `O=C1c2cc([N+](=O)[O-])ccc2-n2c1nc1cnc(O)cc1c2=O` [Compound 51, 3-Hydroxy-9-nitropyrido[3′,4′:4,5]pyrimido[1,2-a]indole-5,11-dione], the pIC50 was less than 6.30.

`O=C1c2cc([N+](=O)[O-])ccc2-n2c1nc1c(Br)c(F)ccc1c2=O` [Compound 35] showed a pIC50 of 6.30 to 7.30.

Compound `O=C1c2c(F)cc(F)cc2NC2C(O)c3cc([N+](=O)[O-])ccc3N12` (stereo not drawn) [Compound 32, 1,3-Difluoro-6-hydroxy-8-nitro-5a,6-dihydroindolo[2,1-b]quinazolin-12(5H)-one] gave a pIC50 of 6.30 to 7.30.

`O=C(O)c1ccc2c(c1)C(=O)c1nc3cc(Cl)cc(Cl)c3c(=O)n1-2` [Compound 22, 1,3-Dichloro-6,12-dioxoindolo[2,1-b]quinazoline-8-carboxylic Acid] had a pIC50 of less than 6.30.

Regarding `Cc1c(F)ccc2c(=O)n3c(nc12)C(=O)c1cc([N+](=O)[O-])ccc1-3` [Compound 30, 3-Fluoro-4-methyl-8-nitroindolo[2,1-b]quinazoline-6,12-dione], the pIC50 is 6.30 to 7.30.

`CNC(=O)c1ccc2c(c1)C(=O)c1nc3cc(Cl)cc(Cl)c3c(=O)n1-2` [Compound 20, 1,3-Dichloro-N-methyl-6,12-dioxo-6,12-dihydroindolo[2,1-b]quinazoline-8-carboxamide] had a pIC50 of 6.30 to 7.30.
